Broadly, the IC50 is the midpoint of a concentration-inhibition curve. A higher IC50 goes with weaker potency. As usually defined, the DC50 is the midpoint of the concentration-degradation curve. Low values mean degradation at low concentration, high ones degradation only at high concentration.

The target in one assay is kinase IRAK4 (Homo sapiens (Human), UniProt Q9NWZ3). The assay can be described thus: Inhibitory effects of compounds on kinase activity (fluorescence microfluidic mobility detection, competitive with ATP). Format: biochemical. The note with it: IRAK4 6 nM, ATP 10 μM. The method, boiled down: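 Human IRAK4 (6 nM final) in HEPES pH 7.5 buffer with MgCl2, DTT and Brij-35 was preincubated with compound (10 μM top, 4-fold dilutions to 0.38 nM, duplicate) for 10 min at room temperature. Reaction with FAM-P8 peptide (3 μM) and ATP (10 μM) ran 1 h at 28° C., then EDTA-stopped. Conversion read by microfluidic mobility shift; IC50 by four-parameter fit.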

Assay [1] has as its target IRAK4 protein in THP-1 cells (Homo sapiens (Human), UniProt Q9NWZ3). Nature of the assay: PROTAC-induced IRAK4 protein degradation in THP-1 cells (Western Blot). It is filed as cell-based. The conditions noted are these: concentration that degraded 50% of IRAK4, Western blotting, 24 hours after administration. A digest of the protocol:
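THP-1 cells treated with compound at 0.3, 1 or 3 µM for 8–48 h at 37 °C. IRAK4 levels in cell lysates assessed by Western blot with anti-IRAK4 antibody, normalised to GAPDH.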
In general terms: In western blotting, separated proteins are transferred to a membrane and probed.

kinase IRAK4, sequence (Q9NWZ3 whole entry): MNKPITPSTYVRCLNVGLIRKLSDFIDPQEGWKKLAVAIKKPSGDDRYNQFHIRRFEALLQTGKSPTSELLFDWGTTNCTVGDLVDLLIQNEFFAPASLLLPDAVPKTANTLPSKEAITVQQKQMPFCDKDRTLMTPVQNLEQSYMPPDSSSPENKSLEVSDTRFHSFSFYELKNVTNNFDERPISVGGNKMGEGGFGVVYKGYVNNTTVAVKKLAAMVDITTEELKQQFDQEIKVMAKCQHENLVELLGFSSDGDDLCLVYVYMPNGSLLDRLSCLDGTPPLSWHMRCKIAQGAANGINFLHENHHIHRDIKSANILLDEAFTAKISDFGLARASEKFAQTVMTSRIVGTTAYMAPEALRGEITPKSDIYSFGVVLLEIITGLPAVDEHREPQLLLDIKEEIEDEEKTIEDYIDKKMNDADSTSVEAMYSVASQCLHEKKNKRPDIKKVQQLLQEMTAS
IRAK4 protein in THP-1 cells, sequence (Q9NWZ3 whole entry): as above

As for `O=C1CCC(N2C(=O)c3ccc(N4CCC(C(=O)N5CCC6(CC5)CC(n5cc7cc(NC(=O)c8cccc(C(F)(F)F)n8)c(N8CCOCC8)cc7n5)C6)CC4)cc3C2=O)C(=O)N1` (stereo not shown) [Compound I-9], at kinase IRAK4 (Table 2, substrate FAM-P8 3 μM), the IC50 amounted to 32.9 nM. For the same compound, in assay [1], the DC50 was 12 nM.

Regarding `O=C1CCC(N2C(=O)c3ccc(N4CCC(C(=O)N5CCC6(CC5)CC(n5cc7cc(NC(=O)c8cccc(C(F)(F)F)n8)c(N8CC[C@@H](O)C8)cc7n5)C6)CC4)cc3C2=O)C(=O)N1` (stereo partly shown) [Compound I-10], the IC50 at kinase IRAK4 (Table 2, substrate FAM-P8 3 μM) was found to be 24 nM. In assay [1], the DC50 turned out to be 5.07 nM.

At kinase IRAK4 (Table 2, substrate FAM-P8 3 μM), `COc1cc2nn(C3CC4(CCN(C(=O)C5CC6(C5)CN(c5ccc7c(c5)C(=O)N(C5CCC(=O)NC5=O)C7=O)C6)CC4)C3)cc2cc1NC(=O)c1cccc(C(F)(F)F)n1` (stereo not shown) [Compound I-17] yielded an IC50 of 31 nM. Also, the DC50 in assay [1] is 25.9 nM.

With `COc1cc2nn(C3CCN(C4CC5(CCN(c6ccc7c(c6)C(=O)N(C6CCC(=O)NC6=O)C7=O)CC5)C4)CC3)cc2cc1NC(=O)c1cccc(C(F)(F)F)n1` (stereo not shown) [II-12], the IC50 was less than 100 nM at kinase IRAK4 (Table 1, class symbols) and 14.2 nM on kinase IRAK4 (Table 2, substrate FAM-P8 3 μM). Besides, in assay [1], the DC50 amounted to 20.5 nM.

Consider `COc1cc2nn(C3CC4(CCN(C(=O)C5CCN(c6cc7c(cc6F)C(=O)N([C@@H]6CCC(=O)NC6=O)C7=O)CC5)CC4)C3)cc2cc1NC(=O)c1cccc(C(F)(F)F)n1` [Compound I-62], for which the IC50 at kinase IRAK4 (Table 2, substrate FAM-P8 3 μM) was determined as 19 nM. For the same compound, in assay [1], it took 3.26 nM to reach half-maximal degradation (DC50).

At kinase IRAK4 (Table 2, substrate FAM-P8 3 μM), `COc1cc2nn(C3CC4(C3)CN(C(=O)C3CCN(c5ccc6c(c5)C(=O)N(C5CCC(=O)NC5=O)C6=O)CC3)C4)cc2cc1NC(=O)c1cccc(C(F)(F)F)n1` (stereo not shown) [Compound I-14] came in with an IC50 of 16.6 nM. The DC50 in assay [1] was 12.6 nM.

In turn, `COc1cc2nn(C3CC4(CCN(C5CC6(CCN(c7ccc8c(c7)C(=O)N(C7CCC(=O)NC7=O)C8=O)CC6)C5)CC4)C3)cc2cc1NC(=O)c1cccc(C(F)(F)F)n1` (stereo not shown) [Compound I-24] had an IC50 at kinase IRAK4 (Table 2, substrate FAM-P8 3 μM) of 17.4 nM. In assay [1], this compound had a DC50 of 15.3 nM.

Take `COc1cc2nn(C3CCN(CC(=O)N4CCN(c5ccc6c(c5)CN(C5CCC(=O)NC5=O)C6=O)CC4)CC3)cc2cc1NC(=O)c1cccc(C(F)(F)F)n1` (stereo not shown) [II-7]: the IC50 on kinase IRAK4 (Table 2, substrate FAM-P8 3 μM) worked out at 3.57 nM. In assay [1], it took 2.2 nM to reach half-maximal degradation (DC50).

On to `Cc1cccc(C(=O)Nc2cc3cn(C4CC5(CCN(C(=O)C6CCN(c7ccc8c(c7)C(=O)N([C@@H]7CCC(=O)NC7=O)C8=O)CC6)CC5)C4)nc3cc2C(C)(C)O)n1` [Compound I-64], for which, on kinase IRAK4 (Table 2, substrate FAM-P8 3 μM), the 50% inhibitory concentration (IC50) came out at 22.7 nM. Further, the 50% degradation concentration (DC50) in assay [1] is 2.32 nM.

As to `COc1cc2nn(C3CC4CCC(C3)N4CC(=O)N3CCN(c4ccc5c(c4)C(=O)N(C4CCC(=O)NC4=O)C5=O)CC3)cc2cc1NC(=O)c1cccc(C(F)(F)F)n1` (stereo not shown) [II-13], the IC50 at kinase IRAK4 (Table 1, class symbols) was less than 100 nM; at kinase IRAK4 (Table 2, substrate FAM-P8 3 μM), 10.5 nM. Moreover, in assay [1], it took 478 nM to reach half-maximal degradation (DC50).
